Data from US6492344B1, “Syndecan enhancer element and syndecan stimulation of cellular differentiation” (Biotie Therapies Corp., priority 1993, dated 2002).

What was measured:
[1] = system: nuclear factors binding FiRE motifs 1-5; assay type: cell-based, mouse
Protocol: The Enhancer Comprises Five DNA Binding Motifs. Plasmid pFiRE was end-labeled using Klenow fragment and […]. DNAse I footprinting was performed with labeled pFiRE vector alone (naked), together with FGF-induced nuclear extracts (FGF-2), and together with non-induced nuclear extracts (control). To obtain nuclear extracts, NIH3T3 cells were plated on 16 cm dishes and treated with or without FGF-2 for 1 day. Nuclear proteins were extracted using a modification described by Lee et al., Gene Anal. Techn. 5:22-31 (1988). Protein concentrations were measured by the Bradford method.
In a 12 μl reaction, 5 μg of the nuclear extracts were incubated with labeled oligonucleotide, 2 μg of poly-d[I-C] and 2×reaction buffer, i.e., […], pH 7.5; 100 mM NaCl; 2 mM EDTA; and 10% glycerol for 15 minutes at room temperature. Non-labeled competitor oligonucleotides were used at 100-fold molar excess. The complexes were analyzed by electrophoresis in a 4.5% polyacrylamide gel. For supershifts, 0.1 μg of specific antibody was added to the reaction 15 minutes before the labeled oligonucleotide. […]
These motifs was further analyzed by competing the binding of nuclear factors with a molar excess of specific (s) and non-specific (ns) oligonucleotides. […] The resulting complexes were analyzed by the gel retardation analysis described above. […]

[2] = system: syndecan-1 gene; assay: Nuclear run-off of syndecan-1 transcription in 3T3NIH cells; assay type: cell-based, mouse
Protocol: The same cells were exposed to 10 ng/ml of FGF-2 for 4 hours and 24 hours with or without exposure to FGF (Control) followed by the isolation of nuclei for the run-off experiment. c-jun or nur transcription was used as a positive control and β-actin as a loading control. In nuclei isolated 4 hours after FGF exposure the level of transcription of the syndecan-1 gene was elevated as were the levels for c-jun and nur as positive controls.

[3] = system: syndecan-1 enhancer element (pXb6); assay: CAT reporter assay of syndecan upstream fragment pXb6 in 3T3 NIH cells; assay type: cell-based, mouse; details: 3T3NIH cells transiently transfected; FGF-2 alone
Excerpt: Determination of Mouse Syndecan Promoter and Enhancer Activities. The mouse syndecan-1 gene has been cloned and characterized up to −10 kbs upstream from the transcription start site. To determine the specific activities of different proximal promoter regions (up to −2 kbs from the start site) and enhancer regions (from −2 to −10 kbs) we have made plasmid constructs in which these regions were cloned into pCAT basic or pCAT promoter vectors, containing the CAT reporter gene. The reporter CAT gene produces the enzyme chloramphenicol acetyltransferase, which transfers the n-butyryl moiety of n-butyryl CoA to chloramphenicol. […]
The plasmid constructs were transiently transfected into eukaryotic cells by calcium phosphate precipitation simultaneously with a β-Galactosidase expressing vector to determine transfection efficiency. […] This was incubated from 2 hours to overnight and the color reaction was measured spectrophotometrically at 420 nm.
CAT activity was determined by adding 0.25 M Tris buffer, 25 ng n-butyryl CoA and 0.0626 μCi of ^14C-chloramphenicol to the cytoplasmic extract. Samples were incubated overnight, extracted with xylene and the radioactivity present was measured by scintillation counting. CAT activity was corrected for transfection efficiency as determined by assays of β-galactosidase activity. […]

[4] = system: MCA3D cells; assay: Cell proliferation of MCA3D keratinocytes; assay type: cell-based; details: MCA3D mouse keratinocytes

FGF-2: Basic fibroblast growth factor (FGF-2 or bFGF); recombinant human
nuclear protein binding to motifs 1 and 2 [1]: do not show binding to an FGF-2 inducible factor | nuclear protein binding to motifs 3, 4 and 5 [1]: bind at least one specific FGF-2 inducible nuclear protein | transcription of syndecan-1 (run-off) ([2]; after 24 hours of 10 ng/ml FGF-2): not detectable | level of transcription of the syndecan-1 gene (run-off) ([2]; nuclei isolated 4 hours after 10 ng/ml FGF exposure): elevated | CAT gene expression from plasmid pXb6 [3]: increase in CAT gene expression | cell proliferation [4]: stimulated cell proliferation
